The structures appear in SMILES notation. Like-named read-outs stand apart in the source and are kept apart here. A value given as a limit tells only on which side of the number the result lay.

The values below come from article PMC7320180, “Hydroxamic acid derivatives as HDAC1, HDAC6 and HDAC8 inhibitors with antiproliferative activity in cancer cell lines” (Scientific Reports, 2020).

In one test the test system is HepG2 cells. In words: MTT cytotoxicity test, HepG2. It counts as cell-based. To be noted: Homo sapiens, HepG2, 72 h; MTT, 3 days; read-out: IC50 (µM) HepG2. The method, then: (§1) All compounds were evaluated in triplicate using six points, 1/3 dilutions, with the highest concentration of 50 µM. The triplicate measurements were placed in three different 96-plates, and 1% DMSO was used as a negative control.
(§2) The first sets of […] (GH38, GH18, GH27, FH38, FH18, […] and FH37) were evaluated in different cancer cell lines: HepG2, MCF-7, SH-SY5Y, MIA PaCa-2, and […]. Furthermore, the second series of eight compounds were evaluated using seven cell lines: SH-SY5Y which is a neuroblastoma cell line; HepG2, a hepatocellular carcinoma cell line; MIA PaCa-2, a human pancreatic carcinoma cell line; MCF-7, a breast cancer cell line; HCC1954, a basal-Her2+ breast carcinoma cell line; RCC4-VA, a renal carcinoma cell line with a VHL mutation; and RCC4-VHL, a renal carcinoma cell without the VHL mutation (wild type). The cells used were seeded in 96-well plates and left for 24 h (5% CO2 and 90% humidity, 50000 cells/well) and incubated for 3 days to study the cytotoxicity.

The next test relates to MIA PaCa-2 cells. In words: MTT cytotoxicity test, MIA PaCa-2. Type of test: cell-based. The settings on record: Homo sapiens, MIA PaCa-2, 72 h; MTT, 3 days; read-out: IC50 (µM) MIA PaCa-2. The method, then:
as §1, §2
A general note: Formazan colour is commonly taken as a measure of viable cells.

In the next test the test system is MCF-7 cells. In words: MTT cytotoxicity test, MCF-7. The settings on record: Homo sapiens, MCF7, 72 h; MTT, 3 days; read-out: IC50 (µM) MCF-7. Type of test: cell-based. The method, then: as §1, §2
The test system of a further test is HCC1954 cells. In words: MTT cytotoxicity test, HCC1954. It counts as cell-based. The settings on record: 3 days. How it is done:
as §1, §2

The next test relates to RCC4-VA cells. In words: MTT cytotoxicity test, RCC4-VA. The settings on record: 72 h, 3 days. It counts as cell-based. How it is done:
as §1, §2

In the next test the test system is RCC4-VHL cells. In words: MTT cytotoxicity test, RCC4-VHL. It counts as cell-based. To be noted: Homo sapiens, 72 h, 3 days. The method, then:
as §1, §2

The subject of the next test is SH-SY5Y cells. In words: MTT cytotoxicity test, SH-SY5Y. Type of test: cell-based. The settings on record: Homo sapiens, 72 h, 3 days. The method, then: as §1, §2
The target of the next test is T1, HDAC1 (Homo sapiens, UniProt Q13547).
T1 construct: purchased Enzo Life Sciences BML-AK511
The experiment in a line: HDAC fluorometric enzymatic inhibition assay, HDAC1. Type of test: biochemical.

Another test addresses T2, HDAC6 (Homo sapiens, UniProt Q9UBN7).
T2 construct: purchased Enzo Life Sciences BML-AK516
T2 sequence (Q9UBN7 1-1215): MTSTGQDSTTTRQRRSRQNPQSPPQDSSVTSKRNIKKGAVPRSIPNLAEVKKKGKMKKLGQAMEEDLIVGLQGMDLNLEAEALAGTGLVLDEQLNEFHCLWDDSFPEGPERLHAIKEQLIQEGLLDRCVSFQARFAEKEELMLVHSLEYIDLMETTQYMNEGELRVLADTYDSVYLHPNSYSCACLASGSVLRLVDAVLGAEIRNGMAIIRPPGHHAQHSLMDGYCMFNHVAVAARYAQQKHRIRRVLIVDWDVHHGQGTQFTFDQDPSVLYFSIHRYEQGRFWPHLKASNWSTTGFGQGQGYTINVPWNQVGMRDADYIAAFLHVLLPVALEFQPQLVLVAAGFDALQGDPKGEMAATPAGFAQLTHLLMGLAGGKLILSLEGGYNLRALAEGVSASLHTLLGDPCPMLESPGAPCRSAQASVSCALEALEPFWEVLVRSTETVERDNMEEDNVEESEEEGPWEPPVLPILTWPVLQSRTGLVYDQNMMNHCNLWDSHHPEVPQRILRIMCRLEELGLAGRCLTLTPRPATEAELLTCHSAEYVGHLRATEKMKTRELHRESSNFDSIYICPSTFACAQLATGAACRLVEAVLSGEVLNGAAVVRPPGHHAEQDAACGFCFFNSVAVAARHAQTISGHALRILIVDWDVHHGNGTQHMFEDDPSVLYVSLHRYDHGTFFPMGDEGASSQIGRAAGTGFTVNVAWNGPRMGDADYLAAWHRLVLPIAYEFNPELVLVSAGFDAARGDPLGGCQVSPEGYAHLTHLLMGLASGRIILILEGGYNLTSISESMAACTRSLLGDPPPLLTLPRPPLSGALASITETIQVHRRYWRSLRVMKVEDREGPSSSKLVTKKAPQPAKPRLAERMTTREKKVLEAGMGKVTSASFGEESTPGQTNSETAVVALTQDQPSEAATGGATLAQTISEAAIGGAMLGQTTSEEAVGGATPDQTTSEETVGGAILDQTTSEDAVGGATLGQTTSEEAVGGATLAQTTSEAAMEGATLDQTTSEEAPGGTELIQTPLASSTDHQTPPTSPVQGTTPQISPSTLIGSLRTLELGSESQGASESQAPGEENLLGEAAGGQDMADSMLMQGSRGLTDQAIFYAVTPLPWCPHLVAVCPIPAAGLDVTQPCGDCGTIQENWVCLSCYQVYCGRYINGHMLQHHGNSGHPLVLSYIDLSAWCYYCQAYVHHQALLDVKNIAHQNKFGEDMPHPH
The experiment in a line: HDAC fluorometric enzymatic inhibition assay, HDAC6. Type of test: biochemical.

The target of a further test is T3, HDAC8 (Homo sapiens, UniProt Q9BY41).
T3 construct: purchased Enzo Life Sciences BML-AK518
T3 sequence (Q9BY41 1-377): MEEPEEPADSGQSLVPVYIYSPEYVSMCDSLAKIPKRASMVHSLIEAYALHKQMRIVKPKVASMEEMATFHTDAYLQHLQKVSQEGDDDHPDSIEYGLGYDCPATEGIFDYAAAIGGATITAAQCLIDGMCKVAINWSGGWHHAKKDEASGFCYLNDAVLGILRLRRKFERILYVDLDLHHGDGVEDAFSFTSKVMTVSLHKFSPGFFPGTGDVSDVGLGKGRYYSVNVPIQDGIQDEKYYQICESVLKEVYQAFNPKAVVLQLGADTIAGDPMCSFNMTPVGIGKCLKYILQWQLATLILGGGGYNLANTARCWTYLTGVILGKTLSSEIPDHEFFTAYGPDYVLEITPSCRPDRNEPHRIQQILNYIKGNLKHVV
The experiment in a line: HDAC fluorometric enzymatic inhibition assay, HDAC8. Type of test: biochemical.

The next test relates to cancer cell lines. In words: Antiproliferative effect, cell line not stated. It counts as cell-based. To be noted: second series, seven cancer cell lines. The method, then: as §1, §2

T1 sequence (Q13547 whole entry): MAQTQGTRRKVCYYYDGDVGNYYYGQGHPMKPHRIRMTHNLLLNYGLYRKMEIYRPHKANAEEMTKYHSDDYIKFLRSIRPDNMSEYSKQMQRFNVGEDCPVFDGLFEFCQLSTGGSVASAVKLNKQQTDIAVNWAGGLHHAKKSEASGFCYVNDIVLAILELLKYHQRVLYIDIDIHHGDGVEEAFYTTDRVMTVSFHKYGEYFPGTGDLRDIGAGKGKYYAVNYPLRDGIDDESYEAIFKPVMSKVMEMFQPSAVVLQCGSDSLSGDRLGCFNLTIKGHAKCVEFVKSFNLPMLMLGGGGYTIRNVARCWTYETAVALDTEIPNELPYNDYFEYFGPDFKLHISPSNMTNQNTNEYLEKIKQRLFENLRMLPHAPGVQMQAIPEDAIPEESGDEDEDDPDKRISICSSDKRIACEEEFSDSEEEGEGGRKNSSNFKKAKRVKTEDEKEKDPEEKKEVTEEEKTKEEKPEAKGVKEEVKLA

Regarding `CCCCc1ccc(C(=O)N[C@@H](Cc2cccc3ccccc23)C(=O)NO)cc1` [YSL-109, (S)-4-butyl-N-(1-(hydroxyamino)-3-(naphthalen-1-yl)-1-oxopropan-2-yl)benzamide], the IC50 in the test with HepG2 cells is 3.39 µM; in the test on MIA PaCa-2 cells, above 50 µM; in the test with MCF-7 cells it was 3.41 µM; with HCC1954 cells, 3.77 µM; with HCC1954 cells (Homo sapiens, HCC1954, 72 h) it was 3.41 µM; with RCC4-VA cells, 24.9 µM. Also, the 50% inhibitory concentration (IC50) in the test on RCC4-VHL cells worked out at 32.7 µM; in the test on SH-SY5Y cells, 6.42 µM; at HDAC1 (read-out: IC50 (nM) HDAC1), 259000 nM; on HDAC1 (read-out: IC50 HDAC1), 259000 nM; against HDAC6 it was 0.537 nM; at HDAC8 (read-out: IC50 (nM) HDAC8), 2240 nM. Further, the half-inhibitory concentration (IC50) at HDAC8 (read-out: IC50 HDAC8) was 2240 nM. Further, the “selectivity for HDAC6” value on HDAC6 (HDAC6 compared with HDAC8 and HDAC1) was found to be 4000 fold.
`CCCCc1ccc(C(=O)N[C@H](C(=O)NO)c2ccccc2)cc1` [YSL-129, (S)-4-butyl-N-(2-(hydroxyamino)-2-oxo-1-phenylethyl)benzamide]: the IC50 is above 50 µM in the test on HepG2 cells; above 50 µM in the test on MIA PaCa-2 cells; above 50 µM with MCF-7 cells; above 50 µM in the test on HCC1954 cells (Homo sapiens, HCC1954, 72 h); above 50 µM in the test with RCC4-VA cells; above 50 µM in the test with RCC4-VHL cells. In the test with SH-SY5Y cells, this compound came in with an IC50 above 50 µM. Besides, the biological activity entry with cancer cell lines was “did not show biological activity”.

What is called IC50 is the midpoint of a concentration-inhibition curve.
